In patent publication US11673886B2, “5-membered and bicyclic heterocyclic amides as inhibitors of ROCK” (BRISTOL-MYERS SQUIBB COMPANY, priority 2017, dated 2023):

Assays:
ROCK2 = ROCK2 (Homo sapiens (Human), UniProt O75116); experiment: ROCK2 assay (kinase inhibition, FITC peptide substrate, LABCHIP 3000 Reader); format: biochemical; conditions: 5 μM ATP, 1.5 μM peptide substrate
ROCK [1] = conditions: long term treatment; cited from earlier work
ROCK [2] = conditions: rat, in vivo; cited from earlier work

Chain of ROCK2 (O75116 whole entry, species assumed): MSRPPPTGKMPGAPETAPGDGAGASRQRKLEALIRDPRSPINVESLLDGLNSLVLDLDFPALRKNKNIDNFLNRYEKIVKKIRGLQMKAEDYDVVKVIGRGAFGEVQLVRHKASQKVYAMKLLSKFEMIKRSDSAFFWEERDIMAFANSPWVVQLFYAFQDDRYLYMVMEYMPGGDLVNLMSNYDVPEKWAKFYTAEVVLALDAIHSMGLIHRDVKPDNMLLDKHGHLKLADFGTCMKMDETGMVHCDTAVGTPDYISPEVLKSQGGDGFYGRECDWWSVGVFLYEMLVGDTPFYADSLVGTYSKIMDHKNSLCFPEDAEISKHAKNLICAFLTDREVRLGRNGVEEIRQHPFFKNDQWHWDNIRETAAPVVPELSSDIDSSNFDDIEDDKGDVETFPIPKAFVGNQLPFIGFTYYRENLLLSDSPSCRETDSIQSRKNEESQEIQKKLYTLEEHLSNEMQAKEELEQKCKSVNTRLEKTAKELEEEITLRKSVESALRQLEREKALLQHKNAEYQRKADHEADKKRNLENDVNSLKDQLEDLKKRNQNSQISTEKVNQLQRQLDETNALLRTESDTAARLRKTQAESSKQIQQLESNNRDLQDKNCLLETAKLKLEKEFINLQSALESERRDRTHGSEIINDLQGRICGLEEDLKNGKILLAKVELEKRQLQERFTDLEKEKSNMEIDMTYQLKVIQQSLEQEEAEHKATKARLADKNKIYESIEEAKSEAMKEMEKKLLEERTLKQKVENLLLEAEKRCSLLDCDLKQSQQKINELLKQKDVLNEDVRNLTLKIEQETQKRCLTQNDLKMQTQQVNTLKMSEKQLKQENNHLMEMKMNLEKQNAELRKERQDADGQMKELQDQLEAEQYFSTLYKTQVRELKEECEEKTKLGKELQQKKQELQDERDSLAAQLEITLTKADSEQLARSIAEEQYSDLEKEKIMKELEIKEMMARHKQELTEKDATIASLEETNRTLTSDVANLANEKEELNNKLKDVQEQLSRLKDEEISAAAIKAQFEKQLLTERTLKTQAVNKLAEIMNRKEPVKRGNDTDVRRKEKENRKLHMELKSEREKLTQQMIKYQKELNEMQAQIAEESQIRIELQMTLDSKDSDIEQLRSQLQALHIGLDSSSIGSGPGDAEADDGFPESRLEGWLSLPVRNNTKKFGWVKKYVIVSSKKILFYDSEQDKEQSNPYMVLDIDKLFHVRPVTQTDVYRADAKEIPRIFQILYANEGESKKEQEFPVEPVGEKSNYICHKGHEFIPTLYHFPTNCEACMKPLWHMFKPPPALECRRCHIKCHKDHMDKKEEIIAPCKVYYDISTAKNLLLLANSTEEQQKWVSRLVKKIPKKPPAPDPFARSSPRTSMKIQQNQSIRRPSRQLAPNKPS

Compound	IC50 (ROCK2)	further results
2-cyclopropyl-4- {[(aR)-6-{4-[(1R)- 1-hydroxyethyl]- 2,5- dioxoimidazolidin- 1- yl}spiro[3.3]heptan- 2-yl]oxy}-1,3- thiazole-5- carboxamide [Example 109]	330 nM	
CCn1cc(C(N)=O)c(O[C@H]2CC3(C[C@H](NC(=O)c4cnn5c(C6CC6)c(OCC(C)(C)O)ccc45)C3)C2)n1 (stereo partly drawn) [Example 19, 3-({(aR)-6-[7-cyclopropyl-6-(2-hydroxy-2-methylpropoxy)pyra-zolo[1,5-a]pyridine-3-amido]spiro[3.3]hep-tan-2-yl}oxy)-1-ethyl-1H-pyrazole-4-carboxamide]	10.5 nM	
COCCn1cc(C(N)=O)c(O[C@H]2CC3(C[C@H](NC(=O)c4cnn5c(C6CC6)c(OCC(C)(C)O)ccc45)C3)C2)n1 (stereo partly drawn) [Example 23, 3-({(aR)-6-[7-cyclopropyl-6-(2-hydroxy-2-methylpropoxy)pyra-zolo[1,5-a]pyridine-3-amido]spiro[3.3]hep-tan-2-yl}oxy)-1-(2-methoxyethyl)-1H-pyrazole-4-carboxamide]	77.7 nM	
NC(=O)c1c(O[C@H]2CC3(C[C@H](NC(=O)c4cnn5cc(OCC(F)F)ccc45)C3)C2)nn2ccccc12 (stereo partly drawn) [Example 122, 2-{[(4s)-6-[6-(2,2-difluoroethoxy)pyrazolo[1,5-a]pyridine-3-amido]spiro[3.3]heptan-2-yl]oxy}pyrazolo[1,5-a]pyridine-3-carboxamide]	117 nM	
Cc1ccn2nc(O[C@H]3CC4(C[C@H](NC(=O)c5nn(C(F)F)c6cc(OCC(C)(C)O)ccc56)C4)C3)c(C(N)=O)c2c1 (stereo partly drawn) [Example 132, 1-(difluoromethyl)-6-(2-hydroxy-2-methylpropoxy)-N-[(4s)-6-({3-carbamoyl-5-methylpyrazolo[1,5-a]pyridin-2-yl}oxy)spiro[3.3]heptan-2-yl]-1H-indazole-3-carboxamide]	223 nM	
O=S(=O)(c1cccc2cnccc12)N1CCCNCC1 [fasudil]		coronary constrictive remodeling (ROCK [1]): promote a regression of coronary constrictive remodeling; coronary stenosis (ROCK [1]): progressively reduce coronary stenosis; infarct size and neurologic deficit (ROCK [2]): reduce both the infarct size and neurologic deficit

Continued, in another order:

IC50 (ROCK2)	Compound	further results
20 nM	[H][C@]1(Oc2c(C(N)=O)sc3ccccc23)C[C@]2(C[C@@H](NC(=O)c3cnn4c(C5CC5)c(OCC(C)(C)O)ccc34)C2)C1 (stereo partly drawn) [Example 2, N-((aR)-6-((2-Carbamoylbenzo[b]thiophen-3-yl)oxy)spiro[3.3]heptan-2-yl)-7-cyclopropyl-6-(2-hydroxy-2-methylpropoxy)pyrazolo[1,5-a]pyridine-3-carboxamide]	
551 nM	CC(C)(O)COc1ccc2c(C(=O)N[C@H]3C[C@]4(C3)C[C@H](Oc3c(C(N)=O)cnn3CCCN)C4)cnn2c1C1CC1 (stereo partly drawn) [Example 28, 1-(3-aminopropyl)-5-({(aR)-6-[7-cyclopropyl-6-(2-hydroxy-2-methylpropoxy)pyra-zolo[1,5-a]pyridine-3-amido]spiro[3.3]hep-tan-2-yl}oxy)-1H-pyrazole-4-carboxamide]	
11.6 nM	NC(=O)c1sc(C2CC2)nc1O[C@H]1C[C@@]2(C[C@H](NC(=O)c3cnn4cc(OCC(F)(F)F)ccc34)C2)C1 (stereo partly drawn) [Example 62, 2-cyclopropyl-4-{[(aR)-6-[6-(2,2,2-trifluoroethoxy)pyra-zolo[1,5-a]pyridine-3-amido]spiro[3.3]hep-tan-2-yl]oxy}-1,3-thiazole-5-carboxamide]	
162 nM	Cc1sc2cc(C(N)=O)c(O[C@H]3C[C@@]4(C[C@H](NC(=O)c5nnc(NCC(C)C)s5)C4)C3)nc2c1C (stereo partly drawn) [Example 162, 5-[(2-methylpropyl)amino]-N-[(4s)-6-({6-carbamoyl-2,3-dimethylthieno[3,2-b]pyridin-5-yl}oxy)spiro[3.3]heptan-2-yl]-1,3,4-thiadiazole-2-carboxamide]	
